Tested on: HEK293 cells stably expressing wildtype human APP695 protein (HEK-APPwt cells)
Test: Aβ cell based assay (Aβ1-40 secretion, ELISA)
Details: 1 hr room temperature then five-hour incubation at 37° C., Aβ1-40 ELISA, DAPT as 100% inhibition reference, read-out: EC50, reduction of Aβ1-40 secretion in the cell based assay
Protocol: Aβ Cell Based Assay Procedure
In the following assay, the proteolytic activity of BACE in cells exposed to varying concentrations of a compound of interest is measured by observing the amount of Aβ1-40 secreted from HEK293 cells (Human Embryonic Kidney epithelial cell line) stably expressing either wildtype human APP695 protein (HEK-APPwt cells).
HEK-APPwt cells were grown in high glucose DMEM (Dulbecco's Modified Eagles Medium) with 4500 mg glucose/L,L-glutamine, NaHCO3, pyrdoxin HCl, 10 mM HEPES (4-(2-hydroxyethyl)-1-piperazineethanesulfonic acid) (pH 7.4), 0.1 mM NEAA (Non-essential Amino Acids) (GIBCO Cat#11140-050), 10% fetal bovine serum and 250 μg/ml hygromycin in T-225 flasks at 37° C. with CO2 and humidity control.
Test compounds were initially prepared in DMSO and diluted with DMEM media containing 2% FBS (Fetal bovine serum) and 0.05% Tween20. Ten standard compound solutions were prepared having a range of concentrations. The standard compound solutions were used to determine the EC50 of the test compound. The range of concentrations chosen may depend on the compound's predicted potency.
To prepare the cells for the assay, a flask containing HEK-APPwt cells were trypsinized briefly (1 mL trypsin), and once the cells detached, 4 mL of 10% FBS-DMEM was added to the flask. The detached cells were centrifuged at 900 rpm for 5 min to form a pellet.
The HEK-APPwt cell pellet was re-suspended with 10 mL DMEM media containing 2% FBS. 80 μL of the cell suspension was added to each well of a 96-well cell culture plate to give 100,000 cells/well. 10 μL of a standard compound solution was added to each well of the 96-well cell culture plate followed by 10 μL of Alamar blue solution. The cells were incubated at room temperature for 1 hr, followed by a five-hour incubation in the CO2 incubator at 37° C.
At the end of the incubation, the plates were removed from incubator, and the supernatant was collected. Aβ1-40 concentration in the medium was measured by using a commercial Aβ1-40 ELISA kit (IBL, Japan). Briefly, the ELISA plates were coated with anti-human Aβ35-40 mouse IgG monoclonal antibody. A horseradish peroxidase enzyme conjugated anti-human Aβ11-28 mouse IgG monoclone antibody was used for detection. The cell culture supernatant was diluted 1:4 fold with (EIA buffer+Protease inhibitor (buffer containing Protease Inhibitor (1 mL PI/30 mL buffer). A 100 μL aliquot of the diluted supernatant was added to each well of the ELISA plate and incubated for 6 hrs at 4° C. The ELISA plate was washed 8 times with phosphate buffered saline (PBS) containing 0.05% Tween 20.
A 100 μL of detection antibody was then added and incubated for 1 hour at 4° C. The plate was washed 8 times with PBS buffer containing 0.05% Tween 20 followed by addition of 100 μL of the substrate with the chromogen tetramethyl benzidine (TMB). The plate was incubated in the dark at room temperature for about 30 min and a stop solution (1N H2SO4) was added.
The intensity of the color developed was measured at 450 nm. The optical density at 450 nm (OD450) is proportional to the concentration of human Aβ1-40 secreted by the cell. As a reference, N—[N-(3,5-difluorophenacetyl-L-alanyl)]-S-phenylglycine t-butyl ester (DAPT, a γ-secretase inhibitor) was used to indicate 100% inhibition of BACE activity. Thus, the assay measures the ability of a compound of interest to reduce Aβ1-40 secretion. Compound potency was reported as the EC50 by calculating the percent inhibition at all concentration levels and the data were fit with non-linear curve fitting algorithm using in GraphPad Prism.

Row | Structure (SMILES) | EC50 [nM]
1 | O=C(Nc1nc2c(C(=O)Nc3ncc[nH]3)cccc2[nH]1)c1cccc(C#CC2CC2)n1 [Example 439, Ar = 6-(Cyclopropylethynyl)-pyridine-2-yl] | ≤ 2000
2 | Cc1nc(C(=O)Nc2nc3c(C(=O)Nc4ncc[nH]4)cccc3[nH]2)cc2ccccc12 [Example 300, 1-methyl-isoquinoline-3-carboxylic acid [4-(1H-imidazol-2-ylcarbamoyl)-1H-benzoimidazol-2-yl]-amide] | ≤ 2000
3 | O=C(Nc1nc2c(C(=O)Nc3ncc[nH]3)cccc2[nH]1)c1cccc(C#Cc2ccccc2)n1 [Example 416, 2-[(6-phenylethynyl-pyridine-2-carbonyl)-amino]-1H-benzoimidazole-4-carboxylic acid (1H-imidazol-2-yl)-amide] | ≤ 2000
4 | CS(=O)(=O)c1ccc(CNC(=O)c2cc(-c3ccncc3)cc3[nH]c(NC(=O)c4cc5ccccc5cn4)nc23)cc1 [Example 458, isoquinoline-3-carboxylic acid [4-(4-methanesulfonyl-benzylcarbamoyl)-6-pyridin-4-yl-1H-benzoimidazol-2-yl]-amide] | ≤ 2000
5 | O=C(Nc1nc2c(C(=O)Nc3ncc[nH]3)cccc2[nH]1)c1cncc(C#Cc2ccccc2)c1 [Example 414, 2-[(5-phenylethynyl-pyridine-3-carbonyl)-amino]-1H-benzoimidazole-4-carboxylic acid (1H-imidazol-2-yl)-amide] | ≤ 2000
6 | Cc1nc(NC(=O)c2cccc3[nH]c(NC(=O)c4cc5ccccc5cn4)nc23)[nH]c1C [Example 193, Isoquinoline-3-carboxylic acid [4-(4,5-dimethyl-1H-imidazol-2-ylcarbamoyl)-1H-benzoimidazol-2-yl]-amide] | ≤ 2000
7 | O=C(Nc1nc2c(C(=O)Nc3ncc[nH]3)cccc2[nH]1)c1cc2cc3c(cc2cn1)OCCO3 [Example 318, Ar = 2,3-Dihydro-[1,4]dioxino[2,3-g]isoquinoline-8-yl] | ≤ 2000
8 | COc1cccc2cc(C(=O)Nc3nc4c(C(=O)Nc5ncc[nH]5)cccc4[nH]3)ncc12 [Example 295, 8-methoxy-isoquinoline-3-carboxylic acid [4-(1H-imidazol-2-ylcarbamoyl)-1H-benzoimidazol-2-yl]-amide] | ≤ 2000
9 | O=C(Nc1ncc[nH]1)c1ccc2[nH]c(NC(=O)c3cc4ccccc4cn3)nc2c1 [Example 140, isoquinoline-3-carboxylic acid [5-(1H-imidazol-2-ylcarbamoyl)-1H-benzoimidazol-2-yl]-amide] | ≤ 2000
10 | O=C(Nc1nc2c(C(=O)Nc3ncc[nH]3)cccc2[nH]1)c1cccc(C#Cc2cccnc2)n1 [Example 434, Ar = 6-(Pyridin-3-ylethynyl)-pyridine-2-yl] | ≤ 2000
11 | COc1cc2ccnc(C(=O)Nc3nc4c(C(=O)Nc5ncc[nH]5)cccc4[nH]3)c2cc1OC [Example 289, 6,7-dimethoxy-isoquinoline-1-carboxylic acid [4-(1H-imidazol-2-ylcarbamoyl)-1H-benzoimidazol-2-yl]-amide] | ≤ 2000
12 | CCOc1cc(C(=O)Nc2ncc[nH]2)c2[nH]c(NC(=O)c3cc4ccccc4cn3)nc2c1 [Example 472, isoquinoline-3-carboxylic acid [5-ethoxy-7-(1H-imidazol-2-ylcarbamoyl)-1H-benzoimidazol-2-yl]-amide] | ≤ 2000
13 | CS(=O)(=O)c1ccc(CNC(=O)c2cccc3[nH]c(NC(=O)c4cc5ccccc5cn4)nc23)cc1 [Example 155, isoquinoline-3-carboxylic acid [4-(4-methanesulfonyl-benzylcarbamoyl)-1H-benzoimidazol-2-yl]-amide] | ≤ 2000
14 | O=C(Nc1nc2c(C(=O)Nc3ncc[nH]3)cccc2[nH]1)c1nccc2ccccc12 [Example 311, Ar = Isoquinoline-1-yl] | ≤ 2000
15 | CCS(=O)(=O)c1cc(C(=O)Nc2ncc[nH]2)c2[nH]c(NC(=O)c3cc4ccccc4cn3)nc2c1 [Example 491, isoquinoline-3-carboxylic acid [5-ethanesulfonyl-7-(1H-imidazol-2-ylcarbamoyl)-1H-benzoimidazol-2-yl]-amide] | ≤ 2000
16 | CC(C)(C)C#Cc1cccc(C(=O)Nc2nc3c(C(=O)Nc4ncc[nH]4)cccc3[nH]2)n1 [Example 428, Ar = 6-(3,3-Dimethyl-but-1-ynyl)-pyridine-2-yl] | ≤ 2000
17 | CS(=O)(=O)c1cccc(C#Cc2cccc(C(=O)Nc3nc4c(C(=O)Nc5ncc[nH]5)cccc4[nH]3)n2)c1 [Example 417, 2-{[6-(3-methanesulfonyl-phenylethynyl)-pyridine-2-carbonyl]-amino}-1H-benzoimidazole-4-carboxylic acid (1H-imidazol-2-yl)-amide] | ≤ 2000
18 | O=C(Nc1nc2c(C(=O)Nc3nc4c(s3)CNCC4)cccc2[nH]1)c1cc2ccccc2cn1 [Example 198, isoquinoline-3-carboxylic acid [7-(4,5,6,7-tetrahydro-thiazolo[5,4-c]pyridin-2-ylcarbamoyl)-1H-benzoimidazol-2-yl]-amide] | ≤ 2000
19 | COc1ccc(CNC(=O)c2cccc3nc(NC(=O)c4cc5ccccc5cn4)[nH]c23)cc1 [Example 165, Isoquinoline-3-carboxylic acid [7-(4-methoxy-benzylcarbamoyl)-1H-benzoimidazol-2-yl]-amide] | ≤ 2000
20 | O=C(Nc1nc2c(C(=O)Nc3ncc[nH]3)cccc2[nH]1)c1cccc(-c2ccco2)n1 [Example 355, Ar = 6-(Furan-2-yl)-pyridine-2-yl] | ≤ 2000
21 | COc1ccc2cnc(C(=O)Nc3nc4c(C(=O)Nc5ncc[nH]5)cccc4[nH]3)cc2c1 [Example 294, 6-Methoxy-isoquinoline-3-carboxylic acid [4-(1H-imidazol-2-ylcarbamoyl)-1H-benzoimidazol-2-yl]-amide] | ≤ 2000
22 | COc1ccc2cc(C(=O)Nc3nc4c(C(=O)Nc5ncc[nH]5)cccc4[nH]3)ncc2c1 [Example 296, 7-methoxy-isoquinoline-3-carboxylic acid [4-(1H-imidazol-2-ylcarbamoyl)-1H-benzoimidazol-2-yl]-amide] | ≤ 2000
23 | COc1cc2cnc(C(=O)Nc3nc4c(C(=O)Nc5ncc[nH]5)cccc4[nH]3)cc2cc1OC [Example 312, Ar = 6,7-Dimethoxy-isoquinoline-3-yl] | ≤ 2000
24 | CN1CCc2nc(NC(=O)c3cccc4[nH]c(NC(=O)c5cc6ccccc6cn5)nc34)sc2C1 [Example 212, Isoquinoline-3-carboxylic acid [4-(5-methyl-4,5,6,7-tetrahydro-thiazolo[5,4-c]pyridin-2-ylcarbamoyl)-1H-benzoimidazol-2-yl]-amide] | ≤ 2000
25 | O=C(Nc1nc2cccc(C(=O)Nc3ncc[nH]3)c2[nH]1)c1cc2ccccc2cn1 [Example 58, isoquinoline-3-carboxylic acid [4-(1H-imidazol-2-ylcarbamoyl)-1H-benzoimidazol-2-yl]-amide] | ≤ 2000
26 | O=C(Nc1nc2c(C(=O)Nc3ncc[nH]3)cccc2[nH]1)c1cncc(-c2cccc(F)c2)c1 [Example 351, Ar = 5-(3-Fluoro-phenyl)-pyridine-3-yl] | ≤ 2000
27 | Cn1ccnc1CN1CCc2nc(NC(=O)c3cccc4[nH]c(NC(=O)c5cc6ccccc6cn5)nc34)sc2C1 [Example 247, Isoquinoline-3-carboxylic acid {4-[5-(1-methyl-1H-imidazol-2-ylmethyl)-4,5,6,7-tetrahydro-thiazolo[5,4-c]pyridin-2-ylcarbamoyl]-1H-benzoimidazol-2-yl}-amide] | ≤ 2000
